The target of test [1] is T1, BuChE (butyrylcholinesterase) (Equus caballus, UniProt P81908).
T1 construct: gene BCHE; native enzyme isolated from horse serum
Put plainly: Ellman assay, […] nm, microplate. It is filed as biochemical. Conditions: read-out: IC50 (μg.mL^-1) (converted). For orientation: Ellman's reagent forms a yellow product with free thiols.

For test [2], the target named is T2, AChE (acetylcholinesterase) (Electrophorus electricus, UniProt O42275).
T2 construct: native enzyme isolated from electric eel, type VI-S (printed 'type VIS')
Description: Ellman assay, […] nm, microplate. It is filed as biochemical. The conditions noted are these: read-out: IC50 (μg.mL^-1) (converted).

The values that follow come from publication PMC10938454, “Preparation, Characterization, Antioxidant Activities, and Determination of Anti-Alzheimer Effects of PLGA-Based DDSs Containing Ferulic Acid” (ACS Omega, 2024).

T1 sequence (P81908 whole entry): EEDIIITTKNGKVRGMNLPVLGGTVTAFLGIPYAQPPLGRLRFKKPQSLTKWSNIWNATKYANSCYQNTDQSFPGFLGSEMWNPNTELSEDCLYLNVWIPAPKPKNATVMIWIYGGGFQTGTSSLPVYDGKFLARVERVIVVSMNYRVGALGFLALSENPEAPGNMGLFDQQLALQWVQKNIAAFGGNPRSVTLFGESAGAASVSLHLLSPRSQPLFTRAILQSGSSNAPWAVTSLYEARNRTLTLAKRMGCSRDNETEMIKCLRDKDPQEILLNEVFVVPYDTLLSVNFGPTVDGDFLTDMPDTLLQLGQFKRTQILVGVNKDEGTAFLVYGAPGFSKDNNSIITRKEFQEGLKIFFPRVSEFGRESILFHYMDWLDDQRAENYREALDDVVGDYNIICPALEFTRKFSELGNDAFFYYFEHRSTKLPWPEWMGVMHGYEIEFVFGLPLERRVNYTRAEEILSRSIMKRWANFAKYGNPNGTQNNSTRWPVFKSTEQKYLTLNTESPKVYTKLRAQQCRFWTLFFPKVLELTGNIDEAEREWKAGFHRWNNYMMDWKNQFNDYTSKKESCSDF
T2 sequence (O42275 24-633): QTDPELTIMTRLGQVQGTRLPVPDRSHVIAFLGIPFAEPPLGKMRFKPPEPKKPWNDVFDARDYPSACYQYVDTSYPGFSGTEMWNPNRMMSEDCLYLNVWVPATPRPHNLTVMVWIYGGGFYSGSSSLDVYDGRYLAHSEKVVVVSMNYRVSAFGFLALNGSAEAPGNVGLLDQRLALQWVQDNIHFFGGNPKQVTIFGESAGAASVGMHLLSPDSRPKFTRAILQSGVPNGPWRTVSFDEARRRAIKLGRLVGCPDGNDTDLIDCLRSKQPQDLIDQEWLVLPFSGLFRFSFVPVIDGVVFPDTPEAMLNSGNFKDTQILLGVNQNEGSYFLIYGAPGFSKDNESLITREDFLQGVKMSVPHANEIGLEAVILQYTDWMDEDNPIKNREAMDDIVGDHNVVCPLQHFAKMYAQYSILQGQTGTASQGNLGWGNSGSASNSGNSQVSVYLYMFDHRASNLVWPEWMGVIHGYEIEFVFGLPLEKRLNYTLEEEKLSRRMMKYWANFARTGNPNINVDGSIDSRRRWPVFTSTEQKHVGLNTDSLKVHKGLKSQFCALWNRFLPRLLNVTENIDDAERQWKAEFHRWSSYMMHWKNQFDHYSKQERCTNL

On to `COc1cc(/C=C/C(=O)O)ccc1O` [ferulic acid], for which the IC50 was 2680 µM in test [1] and 2100 µM in test [2].

The term IC50 denotes the concentration that gives 50% inhibition.
